{"source": "patent US10059733B2", "about": "(NUCORION PHARMACEUTICALS, INC., priority 2014, dated 2018)", "key": {"[1]": {"tested_on": "MCF-7", "test": "TC50 assay with human cancer cell lines, 96 h: MCF-7", "format": "cell-based", "conditions": "MCF7, 96 h, read-out: TC50 MCF-7 (μM)", "description": "(§3) Huh7 cells were maintained at 37° C. in a humidified atmosphere at 5% CO2 in DMEM containing 10% FBS. […] The cells were then treated with each compound at concentrations ranging from 500 μM to 0 μM in triplicate in DMEM media containing 2% FBS and 0.5% DMSO and without phenol red. After 48 h of treatment at 37° C., the relative number of living cells in each well was determined by using the CellTiter 96 system (Promega) according to the manufacturer's instructions. The 3-(4,5-dimethylthiazol-2-yl)-5-(3-carboxymethoxyphenyl)-2-(4-sulfophenyl)-2H-tetrazolium (MTS) and phenazine methosulfate (PMS) reagents were added to each well of the 96-well plate and the plate was incubated at 37° C. for approximately 2 h. The absorbance at 490 nm and 650 nm in each well was then determined by using a Flexstation 3 microplate reader (Molecular Dynamics). The absorbance determined at 650 nm was then subtracted from the absorbance determined at 490 nm to correct for light scattering. The corrected absorbance values representing the relative number of live cells in each condition were then plotted as a function of compound concentration, and the data were then fit to the following sigmoidal Emax equation by using Kaleidagraph: y=(Emax*x^Slope)/(TC50^Slope+x^Slope) where y is the relative corrected absorbance value, Emax is the maximum relative inhibition, x is the compound concentration, TC50 is the concentration of the compound at which the total cell population is reduced by 50%, and Slope is the slope of the curve.\n(§4) Huh7, HEPG2, HEK293, MCF-7 and BxPC3 cell lines were maintained at 37° C. in a humidified atmosphere at 5% CO2 in DMEM containing 10% FBS. […] The cells were then treated with each compound at concentrations ranging from 500 μM to 0 μM in triplicate in DMEM media containing 2% FBS and 0.5% DMSO and without phenol red."}, "[2]": {"test": "In vivo toxicology assessment in mice", "parameters": "species or system CD-1 ICR mice", "conditions": "oral gavage 20 mg/kg in Formulation I", "experimental": "All in vivo toxicology assays were performed with CD-1 ICR mice (female, 4-6 week old; 20-30 gram body weight). Compound 1 (Table 1) was first dissolved in Formulation I containing 5% dimethyl sulfoxide (DMSO), 20% solutol, 20% PEG 400, and 55% sodium phosphate (50 mM, pH 6.0). Five mice were administered with Compound 1 in Formulation I via oral gavage at a dosage of 20 mg/kg while two other mice were orally treated with Formulation I alone (no inhibitor)."}, "[3]": {"tested_on": "Huh7 cells", "test": "Cell transport: cytotoxicity in Huh7 cells with or without ENT1 inhibitor NBTI", "conditions": "for CC50: Homo sapiens, Huh-7, 48 h", "experimental": "(§1) Huh7 cells were maintained at 37° C. in a humidified atmosphere at 5% CO2 in DMEM containing 10% FBS. […] The cells were then treated with each compound at concentrations ranging from 500 μM to 0 μM in triplicate in DMEM media containing 2% FBS and 0.5% DMSO and without phenol red. After 48 h of treatment at 37° C., the relative number of living cells in each well was determined by using the CellTiter 96 system (Promega) according to the manufacturer's instructions. The 3-(4,5-dimethylthiazol-2-yl)-5-(3-carboxymethoxyphenyl)-2-(4-sulfophenyl)-2H-tetrazolium (MTS) and phenazine methosulfate (PMS) reagents were added to each well of the 96-well plate and the plate was incubated at 37° C. for approximately 2 h. The absorbance at 490 nm and 650 nm in each well was then determined by using a Flexstation 3 microplate reader ([…]). The absorbance determined at 650 nm was then subtracted from the absorbance determined at 490 nm to correct for light scattering. The corrected absorbance values representing the relative number of live cells in each condition were then plotted as a function of compound concentration, and the data were then fit to the following sigmoidal Emax equation by using Kaleidagraph: y=(Emax*x^Slope)/(TC50^Slope+x^Slope) where y is the relative corrected absorbance value, Emax is the maximum relative inhibition, x is the compound concentration, TC50 is the concentration of the compound at which the total cell population is reduced by 50%, and Slope is the slope of the curve.\nTo this end, Huh7 cells or PK9 cells were seeded in 96-well plates at a density of 5,000 cells/well or 2,500 cells/well, respectively, and the plates were incubated at 37° C. for 24 h to allow for cell attachment. The media was then removed from the plates and replaced with media containing 2% FBS, 0.5% DMSO and 10 μM NBTI. […] Subsequently, the cells were treated with each compound at final concentrations ranging from 500 μM to 0 μM in triplicate in media containing 2% FBS, 0.5% DMSO and 10 μM NBTI. […] The TC50 values of each compound in the presence or absence of the ENT1 inhibitor were then compared."}, "[4]": {"tested_on": "genotype 1b HCV", "test": "Oral administration to HCV-infected chimpanzee, viral load (genotype 1b)", "format": "in vivo", "conditions": "Chimpanzee I", "experimental": "(§2) Via oral gavage, two HCV-infected chimpanzees I (male, 56.49 kg and 11 years old; genotype 1b HCV) and II (male, 61.91 kg and 34 years old; genotype 1a HCV) each received a single dosage of 200 mg of Compound 1 in Formulation I while the HCV-infected chimpanzee III (male, 56.19 kg and 18 years old; genotype 1a HCV) was administered a single dosage of 260 mg of the non-phosphorylated analog of Compound 1 (Table 1) in Formulation I. After 12 hours, the HCV viral titer decreased from 24,100 to 10,200 IU/ml (or 58% drop) in Chimpanzee I, from 38,500 to 27,000 IU/ml (or 30% drop) in Chimpanzee II, and from 154,000 to 142,000 IU/ml (or 8% drop) in Chimpanzee III. […] All animals were fasted overnight prior to dosing and a minimum of 2 hours prior to scheduled blood sample collections. Viral load determinations were performed on plasma samples using the HCV TaqMan assay (COBAS® AmpliPrep/COBAS® TaqMan® HCV Test, Version 2, Test Code 1220) for quantitative analysis. […] There were no adverse effects, illness, nor distress seen with the three chimpanzees during the study requiring veterinarian intervention."}, "[5]": {"tested_on": "genotype 1a HCV", "test": "Oral administration to HCV-infected chimpanzees, viral load (genotype 1a)", "format": "in vivo, chimpanzee", "experimental": "as §2"}, "[6]": {"test": "TC50 assay in Huh7 cells, 48 h (CellTiter 96)", "conditions": "human", "experimental": "as §1\nThe data in Table 1 were determined for cells exposed to drug for 48 h. The IC50 is the concentration of each compound necessary to inhibit the replication of the HCV luciferase replicon to 50%. “TC50,” refers to toxic concentration necessary to reduce the cell population by 50%. All compounds were purified by HPLC."}, "[7]": {"tested_on": "PK9 cells", "test": "TC50 assay in PK9 cells, 48 h", "conditions": "Homo sapiens, PK9, 48 h, read-out: TC50 (μM) in PK9 cells at 48 hr", "experimental": "as §1\nPK9 and RPK9 cells were maintained at 37° C. in a humidified atmosphere at 5% CO2 in Roswell Park Memorial Institute (RPMI) media containing 10% FBS. […] The cells were then treated with each compound at concentrations ranging from […] to 0 μM in triplicate in RPMI media containing 2% FBS and 0.5% DMSO and without phenol red. […] The RPK9 cells were derived from the parental PK9 cell line, and are deficient for dCK activity due to the partial deletion of the dCK gene."}, "[8]": {"tested_on": "HEK293", "test": "TC50 assay with human cancer cell lines, 96 h: HEK293", "format": "cell-based", "conditions": "HEK293, 96 h, read-out: TC50 HEK293 (μM)", "description": "as §3, §4"}, "[9]": {"test": "pH stability in aqueous buffer (HPLC/uv)", "experimental": "In order for a prodrug to be orally bioavailable, it must be stable over a wide range of pH values. […] The relative amount of intact prodrug was then determined by first separating the intact prodrug from any potential degradation products by using reverse-phase high performance liquid chromatography (HPLC) and subsequently quantifying the relative amount of remaining prodrug by uv spectrophotometry."}}, "note": "Like-named read-outs stand apart in the source and are kept apart here."}
{"smiles": "CCCC(CCC)C(=O)Nc1ccn([C@@H]2O[C@H](CO[P@@](=O)(N[C@@H](C)C(=O)OC(C)C)Oc3ccccc3)[C@@H](O)C2(F)F)c(=O)n1", "note": "[Compound 1, (S)-isopropyl 2-(((S)-(((2R,3R,5R)-4,4-difluoro-3-hydroxy-5-(2-oxo-4-(2-propylpentanamido)pyrimidin-1(2H)-yl)tetrahydrofuran-2-yl)methoxy)(phenoxy)phosphoryl)amino)propanoate]", "values": [{"measurement": "CC50", "setting": "[1]", "value": "1.76 ± 0.67", "unit": "µM"}, {"measurement": "internal organs after sacrifice", "setting": "[2]; after Day 7", "value": "healthy with no abnormality"}, {"measurement": "signs of toxicity", "setting": "[2]; seven day period of observation", "value": "no signs of toxicity"}, {"measurement": "CC50", "setting": "[3]; read-out: TC50 (μM) in Huh7 cells at 48 h With NBTI", "value": 16.4, "unit": "µM"}, {"measurement": "CC50", "setting": "[3]; read-out: TC50 (μM) in Huh7 cells at 48 h Without NBTI", "value": 17.4, "unit": "µM"}, {"measurement": "requirement of the ENT1 transporter for cell entry", "setting": "[3]; conclusion from TC50 with/without 10 μM NBTI in Huh7 and PK9 cells", "value": "do not require the ENT1 transporter for cell entry"}, {"measurement": "drop of HCV viral titer after 12 hours", "setting": "[4]; single oral dosage 200 mg", "value": 58, "unit": "%"}, {"measurement": "HCV viral titer after 12 hours", "setting": "[4]; single oral dosage 200 mg in Formulation I, titer before 24,100 IU/ml", "value": "10,200 IU/ml"}, {"measurement": "drop of HCV viral titer after 12 hours", "setting": "[5]; Chimpanzee II, single oral dosage 200 mg", "value": 30, "unit": "%"}, {"measurement": "HCV viral titer after 12 hours", "setting": "[5]; Chimpanzee II, single oral dosage 200 mg in Formulation I, titer before 38,500 IU/ml", "value": "27,000 IU/ml"}, {"measurement": "effectiveness in inhibiting HCV in chimpanzees (comparison)", "setting": "[5]; single oral dosage, 12 hours", "value": "more effective than its non-phosphorylated analog"}, {"measurement": "CC50 at 48 h", "setting": "[6]", "value": "17.4 ± 3.4", "unit": "µM"}, {"measurement": "CC50", "setting": "[7]", "value": "25.2 ± 13.6", "unit": "µM"}, {"measurement": "CC50", "setting": "[8]", "value": "4.1 ± 0.5", "unit": "µM"}, {"measurement": "% of Compound 1 remaining", "setting": "[9]; Pretreatment", "value": 100, "unit": "%"}, {"measurement": "% of Compound 1 remaining", "setting": "[9]; pH 1, aqueous buffer, 40° C., 4 hours, 200 μM", "value": 58, "unit": "%"}, {"measurement": "% of Compound 1 remaining", "setting": "[9]; pH 2, aqueous buffer, 40° C., 4 hours, 200 μM", "value": 85, "unit": "%"}, {"measurement": "% of Compound 1 remaining", "setting": "[9]; pH 4, aqueous buffer, 40° C., 4 hours, 200 μM", "value": 92, "unit": "%"}, {"measurement": "% of Compound 1 remaining", "setting": "[9]; pH 6, aqueous buffer, 40° C., 4 hours, 200 μM", "value": 100, "unit": "%"}, {"measurement": "% of Compound 1 remaining", "setting": "[9]; pH 8, aqueous buffer, 40° C., 4 hours, 200 μM", "value": 47, "unit": "%"}]}
